According to patent publication US11298422B2, “Treating tumors with TTFields and an aurora kinase inhibitor” (Novocure Limited, priority 2018, dated 2022):

Experiments:
[1] = test system: primary glioblastoma cell line HT12347; test: Light microscopy, primary glioblastoma cells; format: cell-based; details: HT12347, TTFields and MLN8237 combination vs control and each alone (FIGS. 10A-10D)
Method: Cells were treated with control, AZD1152, TTFields, or a combination of both. […] FIGS. 10A-10D show exemplary light microscopy images of primary glioblastoma cells HT12347 after the following treatment: 10A: control; 10B: after […] treatment; 10C: after treatment with MLN8237 alone; 10D: after treatment with TTFields and MLN8237.

[2] = test system: primary glioblastoma cell line HT12347; test: Normalized cell count, primary glioblastoma cells; format: cell-based; details: primary glioblastoma cell-lines, compared to each treatment alone; Mann-Whitney-U-test, p<0.01
Method: In addition to U87-MG cells, primary tumor-cell lines were established from glioblastoma tissue taken intraoperatively. TTFields (1.6 V/cm RMS, 200 kHz) were applied for 72 hours using the InovitroTM system. AZD1152 was added to the media in concentrations of up to 100 nmol/l. Cell counts, cell cycle and clonogenic potential were determined at the end of treatment. Primary tumor-cell-lines were analyzed. In addition, MLN8237, an Aurora A kinase inhibitor, was tested in concentrations up to 50 nmol/l for the treatment of U87-MG and primary tumor-cell lines to further establish Aurora kinase inhibition as a target for combination therapy with TTFields. […] FIGS. 5A and 5B show the normalized cell counts after treatment with TTFields and AZD1152, alone and in combination, on U87-MG (FIG. 5A) and primary glioblastoma cell line HT12347 (FIG. 5B) at the indicated AZD1152 concentration and […] frequency. The exemplary box plots show the normalized cell count after treatment with AZD1152 alone, TTFields alone, and combination of AZD1152 and TTFields. “***” marks significant differences where p<0.001. […] FIGS. 8A-8B show the normalized cell counts after treatment with TTFields and MLN8237, alone and in combination, on U87-MG (FIG. 8A) and primary glioblastoma cell line HT12347 (FIG. 8B). […]

[3] = test system: glioblastoma cell line HT 12347; test: PI (propium iodide) staining of DNA content, primary glioblastoma cells; format: cell-based; details: HT 12347, TTFields combined with MLN8237 (FIGS. 9A-9E)
Source text: FIGS. 9A-9E show exemplary PI (propium iodide) staining results showing DNA content after treatment with TTFields alone, […] alone, and in combination in glioblastoma cell line HT 12347 with corresponding cell cycle histograms. FIG. 9A is a summary, with 2n in light gray, 4n in dark gray, and r>4n in black; FIG. 9B is a cell cycle histogram for the control; FIG. 9C is a cell cycle histogram for […] treatment alone; FIG. 9D is a cell cycle histogram for MLN8237 alone; and FIG. 9E is a cell cycle histogram for TTFields combined with MLN8237.

U87-MG = test: Normalized cell count, U87-MG (additional study); format: cell-based, human; details: compared to each treatment alone, Mann-Whitney-U-test, p<0.01
Method: In addition to U87-MG cells, primary tumor-cell lines were established from glioblastoma tissue taken intraoperatively. TTFields (1.6 V/cm RMS, 200 kHz) were applied for 72 hours using the Inovitro™ system. AZD1152 was added to the media in concentrations of up to 100 nmol/l. Cell counts, cell cycle and clonogenic potential were determined at the end of treatment. Primary tumor-cell-lines were analyzed. In addition, MLN8237, an Aurora A kinase inhibitor, was tested in concentrations up to 50 nmol/l for the treatment of U87-MG and primary tumor-cell lines to further establish Aurora kinase inhibition as a target for combination therapy with TTFields. […] FIGS. 8A-8B show the normalized cell counts after treatment with TTFields and MLN8237, alone and in combination, on U87-MG (FIG. 8A) and primary glioblastoma cell line HT12347 (FIG. 8B). The exemplary box plots show the normalized cell count after treatment with TTFields alone, MLN8237 alone, and combination of MLN8237 and TTFields in U87 cells ([…]), and in HT12347 glioblastoma cells (FIG. 8B). The greatest reduction in the percentage of living cells in relation to the control is shown with the combination of TTFields and MLN8237.

With `COc1cc(Nc2ncc3c(n2)-c2ccc(Cl)cc2C(c2c(F)cccc2OC)=NC3)ccc1C(=O)O` [MLN8237, Alisertib] the “number of cells in light microscopy images” value [1] was “lowest number of cells”, the “cell numbers after combined treatment of MLN8237 and TTFields” value [2] was “significant decrease of cell numbers” and the “multinuclear and polyploid cells (PI staining, DNA content)” value [3] was “higher number of multinuclear and polyploid cells”. The “cell numbers after combined treatment of MLN8237 and TTFields” value (U87-MG) was “significant decrease of cell numbers”.
